Where a name gives a salt, the structure may show the parent alone. Read-outs that look alike come from different tables or passages of the source.
Tests used:
[1] = target: T1, Human RORγ Ligand Binding Domain (RORγ-LBD) (Homo sapiens, UniProt P51449); experiment: Dual Fluorescence Energy Transfer (FRET) assay, RORγ-LBD / SRC1(2) co-activator peptide interaction; type: biochemical; conditions: mean of multiple test results if tested more than once; read-out: pIC50 in the dual FRET assay (converted)
T1 construct: made in house; host or cells: E. coli BL21(DE3), modified pET21a
T1 sequence (P51449 263-518): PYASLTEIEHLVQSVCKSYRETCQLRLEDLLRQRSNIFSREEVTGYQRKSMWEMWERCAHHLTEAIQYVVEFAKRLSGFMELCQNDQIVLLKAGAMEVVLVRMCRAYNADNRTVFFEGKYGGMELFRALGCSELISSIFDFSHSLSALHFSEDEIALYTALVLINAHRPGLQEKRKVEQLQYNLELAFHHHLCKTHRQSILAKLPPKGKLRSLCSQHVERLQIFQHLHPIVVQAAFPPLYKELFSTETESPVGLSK
From the text: This assay is based on the knowledge that nuclear receptors interact with cofactors (transcription factors) in a ligand dependent manner. RORγ is a typical nuclear receptor in that it has an AF2 domain in the ligand binding domain (LBD) which interacts with co-activators.
The assay measures ligand-mediated interaction of the co-activator peptide with the purified bacterial-expressed RORγ ligand binding domain (RORγ-LBD) to indirectly assess ligand binding. RORγ has a basal level of interaction with the co-activator SRC1(2) in the absence of ligand, thus it is possible to find ligands that inhibit or enhance the RORγ/SRC1(2) interaction.
Human RORγ Ligand Binding Domain (RORγ-LBD) was expressed in E.coli strain BL21(DE3) as an amino-terminal polyhistidine tagged fusion protein. DNA encoding this recombinant protein was sub-cloned into a modified pET21a expression vector (Novagen).
Approximately 50 g E. coli cell pellet was resuspended in 300 mL of lysis buffer (30 mM imidazole pH 7.0 and 150 mM NaCl). Cells were lysed by sonication and cell debris was removed by centrifugation for 30 minutes at 20,000 g at 4° C. […] The clarified lysate was loaded onto a column (XK-26) packed with ProBond Nickel Chelating resin (Invitrogen), pre-equilibrated with 30 mM imidazole pH 7.0 and 150 mM NaCl. After washing to baseline absorbance with the equilibration buffer, the column was developed with a gradient from 30 to 500 mM imidazole pH 7.0. Column fractions containing the RORγ-LBD protein were pooled and concentrated to a volume of 5 mls. The concentrated protein was loaded onto a Superdex 200 column pre-equilibrated with 20 mM Tris-CI pH 7.2 and 200 mM NaCl. The fractions containing the desired RORγ-LBD protein were pooled together.
Purified RORγ-LBD was buffer exchanged by exhaustive dialysis [3 changes of at least 20 volumes (>8000x)] against PBS [100mM NaPhosphate, pH 8 and 150mM NaC1]. […] The modified protein was distributed into aliquots, frozen on dry ice and stored at −80° C. The biotinylated RORγ-LBD was subjected to mass spectrometric analysis to reveal the extent of modification by the biotinylation reagent.
An appropriate amount of Europium labeled Streptavidin was then added to the biotinylated SRC1(2) solution in a tube to give a final concentration of 10 nM. The tube was inverted gently and incubated for 15 minutes at room temperature. Twenty-fold excess biotin from the 10 mM stock solution was added and the tube was inverted gently and incubated for 10 minutes at room temperature.
Preparation of APC labeled RORγ-LBD: biotinylated RORγ-LBD solution was prepared by adding an appropriate amount of biotinylated RORγ-LBD from the stock solution to a buffer containing 10 mM of freshly added DTT from solid to give a final concentration of 40 nM. An appropriate amount of APC labeled Streptavidin was then added to the biotinylated RORγ-LBD solution in a tube to give a final concentration of 20 nM. The tube was inverted gently and incubated for 15 minutes at room temperature. Twenty-fold excess biotin from the 10 mM stock solution was then added and the tube was inverted gently and incubated for 10 minutes at room temperature.
The reaction mixtures were incubated for 5 minutes. […] The plates were incubated for lhr and then read on ViewLux in Lance mode for EU/APC.

[2] = system: Mouse CD4+ cells; experiment: Th17 cell differentiation assay (IL-17 ELISA); type: cell-based
Description: Mouse CD4+cells were purified using the CD4+ T Cell Isolation II Kit according to manufacturer's instructions (Miltenyi Biotec). 96 well plates were pre-coated with anti-mCD3 antibody. Un-coated wells were used as controls. CD4+ Cells were resuspended in RPMI 1640 complete medium and were added to the 96-well plates. Cytokine cocktail and the compound were then added to the wells. Antibodies and cytokines (all from R&D Systems) used in the assay were selected from the following: anti-mCD3; anti-mCD28; anti-mIFNγ; anti-mIL4; mIL-6; mIL-23; mIL-1β; hTGF-β1. The culture was incubated at 37° C. for 3 days and supernatants were collected for ELISA. The IL-17 ELISAs were performed according to manufacturer's instructions (R&D Systems). The results were analyzed using Prism software with non-linear regression to determine pIC50.

[3] = system: Experimental Autoimmune Encephalomyelitis (EAE); experiment: EAE studies (Experimental Autoimmune Encephalomyelitis); type: in vivo, mice of the C57BL/6 (B6) strain; conditions: orally twice a day from day 0; for EAE onset and clinical score: effect starting at 3, 10 or 30 mg/kg; for EAE onset: 30 mg/kg
[4] = In vitro percutaneous study (Franz diffusion cells, aqueous cream); type: in vitro ADME, human; conditions: 1.0% w/w in aqueous cream pH=6, 5 mg/cm^2, human skin from three donors
From the text: The in vitro percutaneous study is aimed to predict the level of percutaneous penetration obtained for a compound in a topical formulation for psoriasis. This assay coupled with the intrinsic potency of the compound are used to predict the likelihood of success of a compound to engage the target. The higher the ratio of the percutaneous penetration to the intrinsic potency, the higher the ratio of local skin concentration to the intrinsic potency and therefore the higher the chance of a compound to engage the target in a topical formulation.
The compounds were manufactured in a modified aqueous cream at pH=6.
The study was conducted with dermatomed abdominal human skin sourced from three skin donors using 2 cm2 Franz diffusion cells. The receiving fluid consisted of Bovine serum albumin (4% w/v) in 0.1% w/v sodium azide in Phospate Buffer Saline and was heated at 37° C. in order to obtain 32° C. at the skin surface. The cream formulation was applied on the donor side at a 10 mg dose, i.e. 5 mg/cm^2. The samples taken at the following time points: t=0, 3, 6, 9 and 24 h. The receiver samples were then assayed using a method based upon protein precipitation with acetonitrile followed by LC/MS/MS analysis. The percutaneous flux (in ng/cm^2/hr) was determined using the individual API (in a multiple composition) that had permeated into the receiver compartment over 24 hrs per cm^2.

[5] = 72 h, mean pIC50, IL-17 ELISA, 3 days culture, detection limit of the assay 5, read-out: pIC50 in the Th17 cell differentiation assay (converted)

Row | SMILES | IC50 [1] [nM] | IC50 [2, 5] [nM] | further results
1 | Cc1ncc(C(=O)Nc2cc(F)cc(CN3CCN(C(=O)C4CCCC4)[C@@H](C)C3)c2C)cn1 [Example 20, (S)-N-(3-((4-(cyclopentanecarbonyl)-3-methylpiperazin-1-yl)methyl)-5-fluoro-2-methylphenyl)-2-methylpyrimidine-5-carboxamide] | ~100 | ~31.6 | EAE onset and clinical score [3]: delay EAE onset and lower clinical score
2 | Cc1ccc(C(=O)Nc2cc(Cl)cc(CN3CCN(C(=O)C4CCCC4)[C@@H](C)C3)c2C)cn1 [Example 62, (S)-N-(5-chloro-3-((4-(cyclopentanecarbonyl)-3-methylpiperazin-1-yl)methyl)-2-methylphenyl)-6-methylnicotinamide] |  |  | EAE onset [3]: delay EAE onset
3 | Cc1c(NC(=O)c2ccc[nH]c2=O)ccc(F)c1CN1CCN(C(=O)C2CCCC2)[C@@H](C)C1 [Example 129, (S)-N-(3-((4-(cyclopentanecarbonyl)-3-methylpiperazin-1-yl)methyl)-4-fluoro-2-methylphenyl)-2-oxo-1,2-dihydropyridine-3-carboxamide, trifluoroacetic acid salt] |  | > 10000 | 
4 | Cc1ccc(C(=O)Nc2cc(F)cc(CN3CCN(C(=O)CC4CCC4)[C@@H](C)C3)c2C)cn1 [Example 163, (S)-N-(3-((4-(2-cyclobutylacetyl)-3-methylpiperazin-1-yl)methyl)-5-fluoro-2-methylphenyl)-6-methylnicotinamide] |  |  | IC50 ([2]; table with percutaneous study, read-out: Th17 cell differentiation assay IC50): 0.0114 µg/mL; IC50 ([2]; table with percutaneous study, read-out: Th17 cell differentiation assay pIC50 (converted)): 25.1 nM; Flux over 24 hrs [4]: 7.73 ng/cm^2/hr
5 | Cc1c(CN2CCN(C(=O)C3CC(F)(F)C3)[C@@H](C)C2)cc(F)cc1NC(=O)c1cccc(C#N)c1 [Example 175, (S)-3-cyano-N-(3-((4-(3,3-difluorocyclobutanecarbonyl)-3-methylpiperazin-1-yl)methyl)-5-fluoro-2-methylphenyl)benzamide, trifluoroacetic acid salt] |  |  | EAE onset and clinical score [3]: delay EAE onset and lower clinical score
6 | Cc1ccc(C(=O)Nc2cc(Cl)cc(CN3CCN(C(=O)CC4CC4)[C@@H](C)C3)c2C)cn1 [Example 184, (S)-N-(5-chloro-3-((4-(2-cyclopropylacetyl)-3-methylpiperazin-1-yl)methyl)-2-methylphenyl)-6-methylnicotinamide] | ~200 | ~83.2 | EAE onset and clinical score [3]: delay EAE onset and lower clinical score
7 | Cc1ccc(C(=O)Nc2cc(F)cc(CN3CCN(C(=O)[C@H]4C[C@@H](C)C4)[C@@H](C)C3)c2C)cn1 [Example 185, N-(5-fluoro-2-methyl-3-(((S)-3-methyl-4-((cis)-3-methylcyclobutanecarbonyl)piperazin-1-yl)methyl)phenyl)-6-methylnicotinamide] | ~79.4 | ~20.9 | 
8 | Cc1ccc(C(=O)Nc2cc(F)cc(CN3CCN(C(=O)[C@H]4C[C@H](C)C4)[C@@H](C)C3)c2C)cn1 [Example 186, N-(5-fluoro-2-methyl-3-(((S)-3-methyl-4-((trans)-3-methylcyclobutanecarbonyl)piperazin-1-yl)methyl)phenyl)-6-methylnicotinamide] | ~79.4 | ~37.2 | 
9 | Cc1cc(C(=O)Nc2cc(Cl)cc(CN3CCN(C(=O)C4CCCC4)[C@@H](C)C3)c2C)ccn1 [Example 187, (S)-N-(5-chloro-3-((4-(cyclopentanecarbonyl)-3-methylpiperazin-1-yl)methyl)-2-methylphenyl)-2-methylisonicotinamide] | ~126 | ~3.16 | 
10 | Cc1ccc(C(=O)Nc2cc(Cl)cc(CN3CCN(C(=O)[C@H]4C[C@H](C)C4)[C@@H](C)C3)c2C)cn1 [Example 188, N-(5-chloro-2-methyl-3-(((S)-3-methyl-4-((trans)-3-methylcyclobutanecarbonyl)piperazin-1-yl)methyl)phenyl)-6-methylnicotinamide] | ~63.1 | ~8.71 | 
11 | Cc1ccc(C(=O)Nc2cc(Cl)cc(CN3CCN(C(=O)[C@H]4C[C@@H](C)C4)[C@@H](C)C3)c2C)cn1 [Example 189, N-(5-chloro-2-methyl-3-(((S)-3-methyl-4-((cis)-3-methylcyclobutanecarbonyl)piperazin-1-yl)methyl)phenyl)-6-methylnicotinamide] | ~50.1 | ~5.13 | 
12 | Cc1ncc(C(=O)Nc2cc(Cl)cc(CN3CCN(C(=O)[C@H]4C[C@@H](C)C4)[C@@H](C)C3)c2C)cn1 [Example 190, N-(5-chloro-2-methyl-3-(((S)-3-methyl-4-((cis)-3-methylcyclobutanecarbonyl)piperazin-1-yl)methyl)phenyl)-2-methylpyrimidine-5-carboxamide, trifluoroacetic acid salt] | ~158 | ~12.9 | EAE onset [3]: delay EAE onset
13 | Cc1ncc(C(=O)Nc2cc(Cl)cc(CN3CCN(C(=O)[C@H]4C[C@H](C)C4)[C@@H](C)C3)c2C)cn1 [Example 191, N-(5-chloro-2-methyl-3-(((S)-3-methyl-4-((trans)-3-methylcyclobutanecarbonyl)piperazin-1-yl)methyl)phenyl)-2-methylpyrimidine-5-carboxamide, trifluoroacetic acid salt] | ~251 | ~26.3 | EAE onset [3]: delay EAE onset
14 | Cc1ncc(C(=O)Nc2cc(Cl)cc(CN3CCN(C(=O)C4CCCC4)[C@@H](C)C3)c2C)cn1 [Example 192, (S)-N-(5-chloro-3-((4-(cyclopentanecarbonyl)-3-methylpiperazin-1-yl)methyl)-2-methylphenyl)-2-methylpyrimidine-5-carboxamide] |  | ~7.94 | EAE onset and clinical score [3]: delay EAE onset and lower clinical score
